The numbers were not newly measured in PubChem BioAssay AID1259410 (Chemical Carcinogenesis Research Information System (CCRIS), 2018), which cites them from elsewhere.

The data set deals with rodent tumor promotion studies, tumor incidence. The experiment in a line: CCRIS tumor promotion studies.
[1] abbreviates: Carcinogen: 7,12-DIMETHYLBENZ(A)ANTHRACENE, Doses [Carcinogen]: TOP, Route [Carcinogen]: DERMAL, Route [Promoter]: DERMAL, Species: MOUSE, Strain/Sex: MALE,FEMALE.

In the case of `Cn1c(N)nc2c3cccnc3ccc21`, the outcome (Carcinogen: Diethyl nitrosamine (DEN), 55-18-5 and dimethylhydrazine (DMH), 30260-66-3, Carcinogen: Diethyl nitrosamine (DEN), 55-18-5 and dimethylhydrazine (DMH), 30260-66-3, Doses [Carcinogen]: DEN, 200 mg/kg once at -3 days, DMH, 40 mg/kg 4 injections between day 0 and wk 2, Doses [Promoter]: 0, 300 ppm in diet from week 2 to 29, study duration 29 wk, Doses [Promoter]: 0, 300 ppm in diet from week 2 to 29, study duration 29 wk, Route [Carcinogen]: Intraperitoneal (DEN) and subcutaneous (DMH), Route [Promoter]: Oral, Species: Rat, Strain/Sex: F344/Du Crj (20/group with 11 survivors)) is “liver: hepatocellular adenoma and carcinoma. colon adenoma and carcinoma. signif”.
Regarding `CC1=C(/C=C/C(C)=C/C=C/C(C)=C\C(=O)O)C(C)(C)CCC1`, for the setting “Carcinogen: ETHYLNITROSOUREA [759-73-9], Doses [Carcinogen]: 120 UG/KG ONCE, Doses [Promoter]: 200 MG/KG FEED FOR 60 WK (STUDY DURATION: 60 WK), Route [Carcinogen]: IP INJECTION, Route [Promoter]: DIET, Species: MOUSE, Strain/Sex: B6C3F1/MALE (?,44)/(?,35)”, the outcome is “liver: hepatocellular carcinoma”.
For `O=C1NS(=O)(=O)c2ccccc21`, the outcome is, setting by setting: (Carcinogen: FREEZE ULCERATION, Doses [Promoter]: 0, 5% IN DIET BEGINNING IMMEDIATELY, 2, 4, 6 OR 18 WK AFTER ULCERATION OF THE BLADDER BY FREEZING AND CONTINUING FOR DUR, Route [Promoter]: ORAL, Species: RAT, Strain/Sex: F344/MALE) “urinary bladder: transitional cell carcinoma”; (Carcinogen: METHYLNITROSOUREA, Doses [Carcinogen]: BLADDER IMP, Doses [Promoter]: IN DIET, Route [Carcinogen]: BLADDER IMPLANT, Route [Promoter]: ORAL, Species: RAT, Strain/Sex: WISTAR/FEMALE) “urinary bladder”; (Carcinogen: N-(4-(5-NITRO-2-FURYL)-2-THIAZOLYL)FORMAMIDE, 24554-26-5, Doses [Carcinogen]: 0.2% IN AIN-76A DIET FOR 4 WK, Doses [Promoter]: 0, 5% IN PROLAB DIET BEGINNING 1 WK POST CARCINOGEN TREATMENT AND CONTINUING FOR 100 WK (STUDY DURATION: 105 WK), Route [Carcinogen]: ORAL, Route [Promoter]: ORAL, Species: RAT, Strain/Sex: F344/MALE) “bladder: papilloma and carcinoma”; (Carcinogen: N-(4-(5-NITRO-2-FURYL)-2-THIAZOLYL)FORMAMIDE, 24554-26-5, Doses [Carcinogen]: 0.2% IN PROLAB DIET FOR 4 WK, Doses [Promoter]: 0, 5% IN PROLAB DIET BEGINNING 1 WK POST CARCINOGEN TREATMENT AND CONTINUING FOR 100 WK (STUDY DURATION: 105 WK), Route [Carcinogen]: ORAL, Route [Promoter]: ORAL, Species: RAT, Strain/Sex: F344/MALE) “bladder: papilloma and carcinoma”; (Carcinogen: N-(4-(5-NITRO-2-FURYL)-2-THIAZOLYL)FORMAMIDE, Doses [Carcinogen]: DIET, Doses [Promoter]: IN DIET, Route [Carcinogen]: ORAL, Route [Promoter]: ORAL, Species: RAT, Strain/Sex: F344/MALE) “urinary bladder: carcinoma”; (Carcinogen: N-BUTYL-N-4(HYDROXYBUTYL)NITROSAMINE, 3817-11-6, Doses [Carcinogen]: 0.05% IN DRINKING WATER FOR 2 WK, Doses [Promoter]: 0, 5% IN DIET STARTING POST CARCINOGEN AND CONTINUING FOR 22 WK, LEFT URETER LIGATED 8 D POST CARCINOGEN (STUDY DURATION, Route [Carcinogen]: ORAL, Route [Promoter]: ORAL, Species: RAT, Strain/Sex: F344/MALE) “bladder: papilloma”. The outcome by setting is: (Carcinogen: N-BUTYL-N-(4-HYDROXYBUTYL)NITROSAMINE, 3817-11-6, Doses [Carcinogen]: 0.05% IN DRINKING WATER FOR 4 WK, Doses [Promoter]: 0, 5% IN DIET FOR 32 WK POST CARCINOGEN DOSE (STUDY DURATION: 36 WK), Route [Carcinogen]: ORAL, Route [Promoter]: ORAL, Species: RAT, Strain/Sex: F344/MALE) “bladder: carcinoma or papilloma”; (Carcinogen: N-[4-(5-NITRO-2-FURYL)-2-THIAZOLYL]FORMAMIDE, 24554-26-5, Doses [Carcinogen]: 0.2% IN DIET FOR 6 WK, Doses [Promoter]: 0, 5% IN PROLAB DIET FOR 72 WK BEGINNING POST CARCINOGEN TREATMENT (STUDY DURATION: 78 WK), Route [Carcinogen]: ORAL, Route [Promoter]: ORAL, Species: RAT, Strain/Sex: F344/MALE) “urinary bladder: carcinoma, carcinoma or papilloma”; (Carcinogen: N-[4-(5-NITRO-2-FURYL)-2-THIAZOLYL]FORMAMIDE, Doses [Carcinogen]: 0.2% IN DIET FOR 6 WK, Doses [Promoter]: 0, 3% IN PROLAB DIET FOR 72 WK BEGINNING POST CARCINOGEN TREATMENT (STUDY DURATION: 78 WK), Route [Carcinogen]: ORAL, Route [Promoter]: ORAL, Species: RAT, Strain/Sex: F344/MALE) “urinary bladder: carcinoma, carcinoma or papilloma”.
As to `NC(=O)c1cccnc1`, the outcome (Carcinogen: DIETHYLNITROSAMINE, 55-18-5, Doses [Carcinogen]: 25 MG/KG ONCE PRECEDED 24 HR BY 70% PARTIAL HEPATECTOMY, Doses [Promoter]: 0, 6.7, 30 MILLIMOLAR IN DRINKING WATER BEGINNING 2 WK POST CARCINOGEN DOSE (STUDY DURATION: 20 MO), Doses [Promoter]: 0, 6.7, 30 MILLIMOLAR IN DRINKING WATER BEGINNING 2 WK POST CARCINOGEN DOSE (STUDY DURATION: 20 MO), Route [Carcinogen]: INTRAPERITONEAL, Route [Promoter]: ORAL, Species: RAT, Strain/Sex: F344/MALE) is “kidney: tumor”.
As to `O=C1c2cccc(O)c2C(=O)c2c(O)cccc21`, the outcome (Carcinogen: 1,2-DIMETHYLHYDRAZINE, 540-73-8, Doses [Carcinogen]: 20 MG/KG BW 1/WK FOR 12 WK, Doses [Promoter]: 0, 0.2% IN DIET FOR 42 WK BEGINNING POST CARCINOGEN TREATMENT (STUDY DURATION: 54 WK), Route [Carcinogen]: SUBCUTANEOUS, Route [Promoter]: ORAL, Species: MOUSE, Strain/Sex: ICR/CD-1/MALE) is listed as “colon: tumor; liver: tumor”.
In the case of `COC(=O)[C@H]1[C@@H](OC(=O)c2ccccc2)C[C@@H]2CC[C@H]1N2C`, the outcome (Carcinogen: MURINE SARCOMA VIRUS, Doses [Promoter]: 0, 0.5 MG/KG/D FOR 3 D BEGINNING ON DAY OF VIRUS INJECTION (STUDY DURATION: 20 D), Route [Carcinogen]: INTRAMUSCULAR, Route [Promoter]: SUBCUTANEOUS, Species: MOUSE, Strain/Sex: BALB/FEMALE) is “injection site: tumor”.
Consider `COC(=O)/C=C/C=C/CCCCCCCCCCCCCO`, for which the outcome under setting [1] is “integumentary system (skin)”.
With `COS(C)(=O)=O`, under “Carcinogen: N-METHYL-N-NITROSOUREA, 684-93-5, Doses [Carcinogen]: 0.3 MG IN CITRIC ACID PHOSPHATE BUFFER ONCE FOR 30 MIN, Doses [Promoter]: 0, 2.5 MG IN BUFFER 1/2 WK FOR 12 WK BEGINNING 14 D POST CARCINOGEN (STUDY DURATION: 2 YR), Route [Carcinogen]: INTRAVESICULAR, Route [Promoter]: INTRAVESICULAR, Species: RAT, Strain/Sex: F344/FEMALE”, the outcome is “bladder: papillary transitional cell carcinoma”.
In the case of `CCCCCCCCCC(=O)O[C@@H]1[C@@H](C)[C@@]2(O)[C@@H](C=C(CO)C[C@]3(O)C(=O)C(C)=C[C@@H]23)[C@@H]2C(C)(C)[C@]12OC(=O)CCCCCCCCC`, under setting [1], the outcome was “forestomach”.
Consider `N[C@@H](Cc1c[nH]c2ccccc12)C(=O)O`, for which the outcome (Carcinogen: N-(4-(5-NITRO-2-FURYL)-2-THIAZOLYL)FORMAMIDE, Doses [Carcinogen]: DIET, Doses [Promoter]: IN DIET, Route [Carcinogen]: ORAL, Route [Promoter]: ORAL, Species: MOUSE, Strain/Sex: FEMALE) is listed as “urinary bladder”.
